One assay has as its system K562-GRE reporter gene. As to the kind of experiment: K562-GRE reporter gene activity. Type of assay: cell-based. The conditions noted are these: 24 h, read-out: K562-GRE Reporter EC50. How it is done: To generate the parental K562-GRE cell line, K562 cells were seeded at 5×10^5 cells/well onto a 6-well plate (brand: Costar, Cat. No: 3516) containing 2 mL of complete medium (RPM1640, 10% FBS, penicillin-streptomycin) and cultured at 37° C. with 5% CO2 for 24 h. The next day, 3 μg of pNL2.2[NLucP/MMTV/Hygro-NANO] (Promega) and 3 μL of PLUS reagent (brand: Invitrogen, Cat. No: 11514-015) were diluted in 150 μL of Opti-MEM (brand: Gibco, Cat. No: 11058021) and incubated at room temperature for 5 min. The pNL2.2[NLucP/MMTV/Hygro-NANO] vector contains MMTV LTR (mouse mammary tumor virus long terminal repeat), which drives transcription of the luciferase reporter gene NanoLuc in response to activation of several nuclear receptors (e.g. glucocorticoid receptor and androgen receptor). After incubation, the diluted DNA solution was mixed with Lipofectamine LTX solution (brand: Invitrogen, Cat. No: 15338-100) (6 μL of Lipofectamine LTX+144 μL of Opti-MEM) in a 1:1 ratio, pre-incubated, and incubated at room temperature for 15 min to form a DNA-Lipofectamine LTX complex. After incubation, 300 μL of the DNA-Lipofectamine complex was added directly to the cell wells. The K562 cells were transfected at 37° C. with 5% CO2 for 24 h. After transfection, the cells were washed with 3 mL of PBS and selectively grown for two weeks with complete growth medium containing 125 μg/mL hygromycin B (brand: Invitrogen, Cat. No: 10687010). “K562-GRE (pNL2.2[NLucP/MMTV/Hygro-NANO])” cells were generated.
After mixing, the cells were cultured in an incubator at 37° C. for 24 h. After 24 h of incubation, an equal volume of 100 μL of Nano-Glo luciferase assay system (brand: Promega, Cat. No: N1120) was added to the cells, the mixture was reacted in a shaker at […] for 10 min, and the chemiluminescence values were detected using the PHERAstar instrument. The antibody binding curves were plotted using the logarithmic value of the antibody concentration as the abscissa and the corresponding chemiluminescence reading as the ordinate, and the EC50 value was calculated by four-parameter fitting (GraphPad Prism9).
(A reporter such as luciferase makes a cellular process visible.)

Assay [1] deals with Glucocorticoid Receptor GR (Homo sapiens (Human), UniProt P04150). Nature of the assay: Binding activity to glucocorticoid receptor GR (Polarscreen fluorescence polarization kit). The settings on record: GR full length, 2 h. Here is the method: The binding activity of the compound to GR was determined using the Polarscreen Glucocorticoid Receptor Assay Kit, Red (brand: Thermo, Cat. No: A15898). […] The highest concentration was 100 μM, 8 concentrations in total. […] With the log value of the final concentration of the compound as the X axis and the mP value as the Y axis, data was input into the processing software Graphpad Prism 9, and the EC50 value was calculated by four-parameter fitting
Sequence of Glucocorticoid Receptor GR (P04150 whole entry): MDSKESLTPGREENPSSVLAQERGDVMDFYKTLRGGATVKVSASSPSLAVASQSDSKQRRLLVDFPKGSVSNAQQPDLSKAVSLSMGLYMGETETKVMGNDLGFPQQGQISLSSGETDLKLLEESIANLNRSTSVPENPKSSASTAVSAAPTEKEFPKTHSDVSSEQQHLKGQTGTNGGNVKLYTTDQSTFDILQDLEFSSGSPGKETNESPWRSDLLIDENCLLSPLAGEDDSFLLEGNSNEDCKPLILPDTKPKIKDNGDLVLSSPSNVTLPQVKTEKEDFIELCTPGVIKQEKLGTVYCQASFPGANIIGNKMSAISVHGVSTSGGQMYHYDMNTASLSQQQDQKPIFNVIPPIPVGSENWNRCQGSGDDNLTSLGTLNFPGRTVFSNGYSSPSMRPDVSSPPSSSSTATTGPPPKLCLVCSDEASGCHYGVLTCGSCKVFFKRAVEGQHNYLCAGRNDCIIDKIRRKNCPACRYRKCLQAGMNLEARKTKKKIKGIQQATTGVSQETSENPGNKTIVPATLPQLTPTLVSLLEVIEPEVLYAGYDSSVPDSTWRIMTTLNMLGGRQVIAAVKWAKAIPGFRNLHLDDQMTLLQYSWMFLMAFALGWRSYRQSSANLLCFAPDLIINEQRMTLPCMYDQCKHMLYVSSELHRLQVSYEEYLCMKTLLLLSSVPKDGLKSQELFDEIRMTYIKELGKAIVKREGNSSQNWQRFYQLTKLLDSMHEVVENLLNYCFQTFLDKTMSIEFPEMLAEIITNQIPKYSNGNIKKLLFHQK
(In general: Fluorescence polarisation rises when a labelled molecule tumbles more slowly, as on binding a larger partner.)

In another assay the test system is CHS mouse model. Nature of the assay: Efficacy test in CHS mouse model (FITC sensitization, right ear thickness). In kind it is in vivo, C57BL/6N mice. The settings on record: 3 μg/mouse. Here is the method:
Construction of CHS mouse model: 6- to 8-week-old female C57BL/6N mice (Beijing Vital River Laboratory Animal Technology Co., Ltd.) were selected, and all mice were shaved off abdominal hair using a small animal hair clipper. 400 μL of the sensitizer was pipetted with a micropipette and applied evenly to the abdomen of the mice for epidermal sensitization. After application, the mice were held for 3-5 s and the solvent was allowed to evaporate from the skin as clean as possible. The specific preparation method for the sensitizer was: 0.5 g of FITC (fluorescein isothiocyanate; sigma-Aldrich) powder was weighed and fully dissolved in a solvent of 50 mL of acetone (SinoPharm reagent) and 50 mL of DBP (dibutyl phthalate; sigma-Aldrich) in equal proportion to give the sensitizer with the FITC content of 0.5%. On the 6th day after sensitization, the thickness of the right ear of the mice was measured with a dial thickness gauge as a baseline value, then a freshly prepared sensitizer was pipetted with a micropipette and applied evenly inside and outside of the right ear of the mice respectively for epidermal stimulation, and 10 μL of the sensitizer was applied on each side. 24 h after stimulation, the thickness of the right ear of the mice was measured again with a dial thickness gauge to obtain the thickness change of the right ear of the mice, A thickness of right ear=(thickness of right ear 24 h after stimulation)−(baseline value of thickness of right ear).
Therapeutic regimen for CHS model mouse: mice were divided into a blank group, a negative control group, a positive control group, and an experimental group. […] The drug was administered by one-time intraperitoneal injection 1 h before the right ear epidermal stimulation.

Results on one compound are retold here after patent publication US20240307415A1, “STEROID COMPOUND, AND PHARMACEUTICAL COMPOSITION THEREOF AND USE THEREOF” (JIANGSU SIMCERE PHARMACEUTICAL CO., LTD., priority 2021, published 2024).

The term EC50 denotes the concentration giving half of the maximal effect. Turning to `C[C@]12C=CC(=O)C=C1CC[C@@H]1[C@@H]2[C@@H](O)C[C@@]2(C)[C@H]1C[C@H]1O[C@@H](c3ccc(Cc4ccc(N)c5c4CCO5)cc3)O[C@]12C(=O)CO` [Compound 001, (6aR,6bS,7S,8aS,8bS,10R,11aR,12aS,12bS)-10-(4-((7-amino-2,3-dihydrobenzofuran-4-yl)methyl)phenyl)-7-hydroxy-8b-(2-hydroxyacetyl)-6a,8a-dimethyl-6a,6b,7,8,8a,8b,11a,12,12a,12b-decahydro-1H-naphtho[2′,1′:4,5]indeno[1,2-d][1,3]dioxolan-4(2H)-one], the 50% effective concentration (EC50) stood at 3.5 nM in the assay on K562-GRE reporter gene and 13 nM in assay [1]. Besides, the “thickness of the right ear in CHS mice compared to the negative control group” value in the assay on CHS mouse model (one-time intraperitoneal injection 1 h before right ear stimulation, measured 24 h after stimulation) is on record as “significant decrease”. In the assay on CHS mouse model (one-time intraperitoneal injection, CHS mice, right ear thickness), the “efficacy compared with positive reference compound a at the same dose” value is “superior in efficacy to the positive reference compound a”.
